The target in experiment [1] is T1, V2 receptor (AVP-R2) overexpressed in CHO-K1 cells (Homo sapiens, UniProt P30518).
T1 construct: host or cells: CHO-K1
Briefly: Intracellular cAMP release in AVP-R2 CHO-K1 cells (cAMP Hunter eXpress). The following applies: peptide alone, 30 min at 37°C, chemiluminescent read-out. The experiment is classed as cell-based. The method, then:
Changes in intracellular cAMP level in response to agonist stimulation of the GPCR receptor was detected with a chemiluminescent cAMP Hunter eXpress Cat.No: # 95-0150E2CP2M kit from DiscoveRx (www.discoverx.com). A standard curve of cAMP (in duplicate) was included in the same plate and used to report data in nM cAMP. […] The values of cAMP were presented as relative light units (RLU) or they were calculated in nM from the standard curve.

Another experiment relates to Wistar rats. Put plainly: Urine, sodium and potassium outflow after iv injection in rats (metabolic cages, 5 h). Particulars: Wistar rat. Type of experiment: in vivo.

Where a SMILES comes first, the peptide text is derived from it.

T1 sequence (P30518 whole entry): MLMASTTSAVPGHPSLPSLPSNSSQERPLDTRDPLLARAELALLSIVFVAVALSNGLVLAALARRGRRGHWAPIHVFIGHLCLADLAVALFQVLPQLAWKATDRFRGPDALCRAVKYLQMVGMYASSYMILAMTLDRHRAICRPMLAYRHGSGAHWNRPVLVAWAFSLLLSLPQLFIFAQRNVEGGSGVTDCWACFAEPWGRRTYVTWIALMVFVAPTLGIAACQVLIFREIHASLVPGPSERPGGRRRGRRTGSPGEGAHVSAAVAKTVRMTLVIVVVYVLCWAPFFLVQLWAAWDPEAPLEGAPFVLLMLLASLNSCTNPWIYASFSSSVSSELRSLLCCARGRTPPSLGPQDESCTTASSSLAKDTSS
Method for Wistar rats: Experiments were performed using 8-week-old Wistar rats (225-250g) purchased from Charles River laboratories (St. Constant, QC, CA). Rats were housed in a standard temperature and light condition with access to water and irradiated standard rodent diet (Harlan Laboratories Inc., IN, USA) ad libitum. At the end of experiments, rats were anaesthetized with sodium pentobarbital (5mg/100 g body wt. i.p.; 20 𝜇mol/100 g body wt.) and blood samples (2mL, EDTA) were collected. Rats were euthanized by cervical decapitation.
Peptides were dissolved at the desired concentration in 0.3 mL of the vehicle and administered as a single bolus in the tail vein.
Both antagonists (OTA, V2A) were administered to rats at the concentration of 10 μmol/kg under normal conditions (0.3 mL iv injection) and with blood volume expansion (5 mL iv injection). Rats (n = 24 per condition) received combination treatment in random order separated by a 2–3 day interval. For both series of experiments, rats were placed in metabolic cages for a period of 5 hours to collect urine for the determination of sodium and potassium levels. Metabolic cages were kept in a bright and quiet room and rats were deprived of food and water during this period.
The concentrations of excreted sodium and potassium were determined by flame spectrometry (iCE 3000 series AA spectrometer; Thermo Fisher Scientific, Cambridge, UK).

Turning to `CC[C@H](C)[C@@H]1NC(=O)[C@H](Cc2ccc(O)cc2)NC(=O)[C@@H](N)CSSC[C@@H](C(=O)N2CCC[C@H]2C(=O)N[C@@H](CC(C)C)C(=O)NCC(=O)NCC(=O)N[C@@H](CCCCN)C(=O)N[C@@H](CCCNC(=N)N)C(=O)O)NC(=O)[C@H](CC(N)=O)NC(=O)[C@H](CCC(N)=O)NC1=O` [OT-GKR] (HELM PEPTIDE1{C.Y.I.Q.N.C.P.L.G.G.K.R}$PEPTIDE1,PEPTIDE1,1:R3-6:R3$$$V2.0), in experiment [1], the EC50 turned out to be 1100 nM.

In the case of “[d(CH2)5, D-Ile2, Ile4, Tyr-NH29]-AVP [V2A]”, the “effect of antagonist alone on diuresis” value in the experiment on Wistar rats (V2A alone iv, normal volume and blood volume expansion) is reported as “significant diuresis”.

With “[d(CH2)5, Tyr(Me)2, Thr4, Orn8, Tyr-NH29]-vasotocin [OTA]”, in the experiment with Wistar rats (OTA co-administered with OT, normal volume and blood volume expansion (5 mL)), the “effect of antagonist on OT-stimulated diuresis” value was “inhibited OT-stimulated diuresis to control and BVE levels”.

For orientation: EC50 means the concentration needed to bring the measured effect to its halfway point.

(Values after PMC6608960 (PLoS ONE, 2019).)
